According to ChEMBL document CHEMBL1201862, “PubChem BioAssay data set” (2004):
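Results reflect a 48-hour exposure of cells in 96-well plates to compound at five concentrations. GI50 marks 50% less growth.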 Active and inactive are the calls of the source. Rule as the data show it: active = GI50 up to about 1.1 µM and inactive = higher.

Assays:
Assay in all cases: NCI-60 cell line screen, 48 h
A498 = system: A498
ACHN = system: ACHN
CAKI-1 = system: CAKI-1
HL-60 = system: HL-60
HT-29 = system: HT-29
KM12 = system: KM12
M14 = system: M14
MCF7 = system: MCF7
NCI-H460 = system: NCI-H460
NCI/ADR-RES = system: NCI/ADR-RES
OVCAR-5 = system: OVCAR-5
OVCAR-8 = system: OVCAR-8
SF-268 = system: SF-268
SF-295 = system: SF-295
SK-MEL-28 = system: SK-MEL-28
SK-MEL-5 = system: SK-MEL-5
SK-OV-3 = system: SK-OV-3
SN12C = system: SN12C
SR = system: SR
UACC-62 = system: UACC-62

Measured: GI50

O=C(O)c1ccc(NNc2cc(=O)[nH]c(=O)[nH]2)cc1
inactive: A498 > 100 µM | ACHN > 100 µM | CAKI-1 > 10 µM | HL-60 > 100 µM | HT-29 > 100 µM | KM12 > 100 µM | M14 > 100 µM | MCF7 > 100 µM | NCI-H460 > 100 µM | NCI/ADR-RES > 100 µM | OVCAR-5 > 100 µM | OVCAR-8 > 100 µM | SF-268 > 100 µM | SF-295 > 100 µM | SK-MEL-28 > 100 µM | SK-MEL-5 > 100 µM | SK-OV-3 > 100 µM | SN12C > 100 µM | SR > 100 µM | UACC-62 > 100 µM

COc1ccc(CC2C3=C(CCN2C(=O)C2CCC2)CC2(CC3)OCCO2)cc1O (stereo not given)
inactive: A498 26.7 µM | ACHN 84.1 µM | CAKI-1 36.6 µM | HL-60 18.8 µM | HT-29 29 µM | KM12 31.3 µM | M14 21 µM | MCF7 28.6 µM | NCI-H460 27.7 µM | NCI/ADR-RES 16.3 µM | OVCAR-5 > 100 µM | OVCAR-8 58.5 µM | SF-268 35.2 µM | SF-295 20.5 µM | SK-MEL-28 55.2 µM | SK-MEL-5 30.3 µM | SK-OV-3 30.5 µM | SN12C 29.6 µM | SR 10.5 µM | UACC-62 46.1 µM
